Counter-ions that a name gives are not always drawn.

For data set [1] the following is noted: rats; cited from earlier work.
For data set [2] the following is noted: in vivo; cited from earlier work.
Another data set has as its system C6 gliomas. The conditions noted are these: rat C6 glioma, cited from earlier work.
In data set [3] the test system is MGMT. The data set can be described thus: RT-PCR gene-fold changes in human GBM cells. Type of data set: cell-based. How it is done: (§1) Quantification of mRNA by real-time quantitative RT-PCR for HIF-1a, MPG and MGMT. Total RNA from all cell lines with all treatments was purified with an RNeasy Mini Kit (Qiagen), and quantified by spectrophotometry (Nanodrop). cDNA was synthesized using SuperScript IV Reverse Transcriptase Kit (Invitrogen).
(§2) Target gene mRNA was amplified and measured by Bio-Rad CFX96™ Real Time System. Gene expression was determined using the SYBR Select Master Mix (Applied Biosystems). […] The reaction is characterized by the point during cycling when amplification of PCR products is first detected, rather than the amount of PCR product accumulated after a fixed number of cycles. The higher the starting quantity of the template, the earlier a significant increase in fluorescence is observed. The threshold cycle is defined as the fractional cycle number at which fluorescence passes a fixed threshold above the baseline. Fluorescence data were converted into cycle threshold measurements exported to Microsoft Excel. Glyceraldehyde-3-phosphatase dehydrogenase (GAPDH) mRNA expression levels were used as the quantitative internal control. For precise quantification, the mRNA expression level of each sample was normalized using the expression of the GAPDH gene.
(§3) All primers were synthesized by Integrated DNA Technologies. The primers used were: […]
(§4) were used to amplify 603-bp transcripts of MPG [9].

The subject of data set [4] is MPG. The data set can be described thus: RT-PCR gene-fold changes in human GBM cells. In kind it is cell-based. How it is done: as §1, §2, §3, §4
For another data set, the system named is LN229 cells. The experiment in a line: IC50 TMZ sensitivity (50% growth inhibition, cell counts). The conditions noted are these: TMZ alone. In kind it is cell-based, human. How it is done:
(§5) Culture Collection (ATCC; Manassas, VA, USA) (U-138—ATCC (CRL-HTB-16) glioblastoma; LN-18—ATCC (CRL-2610) glioblastoma; LN-229—ATCC (CRL-2611) glioblastoma; and T-98G—ATCC—(CRL-1690). U-251 GBM cells were obtained from Sigma-Aldrich (N#09063001 also known before as U-373 MG (ATCC® HTB-17)). G55 cells were obtained from Dr. Michael Sughrue, who was a resident at Univ. of California San Francisco (originally obtained from C. David James (Department of Neurological Surgery, UCSF, CA, USA), who characterized the cells).
(§6) Cells were cultured in Dulbecco's modified Eagle's medium (DMEM, Gibco BRL, Crand Island, N.Y., USA) supplemented with 10% fetal bovine serum (Gibco) in a standard humidified incubator at 37° C. under 5% CO2.
(§7) IC50 concentrations—Protocol for TMZ sensitivity determination. […] Briefly, cells were plated at 1×10^4 cells per well in 24-well, flat-bottomed plates and incubated with medium for 24 hrs. The cells were subsequently washed twice with medium and incubated further with fresh medium (control) or medium containing 0.1-1,000 μM of TMZ. Per each plate contained growth medium with +/−TMZ there was a plate with medium containing 1 mM OKN. After exposure to the various concentrations of TMZ for 72 hrs, cells were detached by trypsinization and the numbers counted. The experiments were repeated at least 4 times at each concentration.

Another data set concerns T98 cells. The description is as above. Type of data set: cell-based, human. The conditions noted are these: TMZ alone. How it is done:
as §5, §6, §7

Data set [5] concerns MGMT. The data set can be described thus: ELISA protein level in human GBM cell lysates. Type of data set: cell-based. How it is done:
(§8) ELISA for HIF-1a, MPG and MGMT. Protein expressions were assessed in all six glioma cell lines for all four groups of treatment (cell alone, cells with TMZ, cells with OKN, cells with combined OKN and TMZ). Cells were lysed before assaying. In brief, cells were washed by cold PBS gently, and then detached with trypsin, and collected by centrifugation at 1,000×g for 5 minutes. Then, cells were washed three times in cold PBS, then suspended in fresh lysis buffer. Lysates were centrifuged at 1,500×g for 10 minutes at 2-8° C. to remove cellular debris.
(§9) The assay is based on the sandwich ELISA principle. Each well of the supplied microtiter plate has been pre-coated with a target specific capture antibody. Standards or samples are added to the wells and the target antigen binds to the capture antibody. Unbound Standard or sample is washed away. A biotin-conjugated detection antibody is then added which binds to the captured antigen. Unbound detection antibody is washed away. An Avidin-Horseradish Peroxidase (HRP) conjugate is then added which binds to the biotin. Unbound Avidin-HRP conjugate is washed away. A TMB substrate is then added which reacts with the HRP enzyme resulting in color development. A sulfuric acid stop solution is added to terminate color development reaction and then the optical density (OD) of the well is measured at a wavelength of 450 nm±2 nm. The OD of an unknown sample can then be compared to an OD standard curve generated using known antigen concentrations in order to determine its antigen concentration.
(§10) The antigen concentration determined from ELISA was then normalized to the total protein concentration of each cell lysate in order to have comparison between groups. ELISA Kits for N-Methylpurine DNA Glycosylase (MPG) and for Hypoxia Inducible Factor 1 Alpha (HIF1a) were purchased from CLOUD-CLONE CORP.(CCC) and for Human MGMT from LifeSpan Biosciences, Inc.
A general note: ELISA stands for enzyme-linked immunosorbent assay.

Data set [6] relates to MPG. The experiment in a line: ELISA protein level in human GBM cell lysates. In kind it is cell-based. How it is done:
as §8, §9, §10

Data set [7] relates to HIF-1α. The experiment in a line: ELISA protein level in human GBM cell lysates. In kind it is cell-based. How it is done: as §8, §9, §10
For data set [8], the system named is HIF-1α. The data set can be described thus: RT-PCR gene-fold changes in human GBM cells. Type of data set: cell-based. How it is done:
as §1, §2, §3

Another data set concerns LN18 cells. The experiment in a line: IC50 TMZ sensitivity (50% growth inhibition, cell counts). In kind it is cell-based. The conditions noted are these: Homo sapiens, LN-18, TMZ alone, 72 hrs. How it is done:
as §5, §6, §7

The next data set has as its system U138 cells. The data set is described as above. Type of data set: cell-based. The conditions noted are these: Homo sapiens, TMZ alone, 72 hrs. How it is done:
as §5, §6, §7

Another data set relates to G55 cells. Described as above. In kind it is cell-based. The conditions noted are these: Homo sapiens, 72 h, TMZ alone. How it is done: as §5, §6, §7
In the next data set the test system is U251 cells. The data set is described as above. In kind it is cell-based. The conditions noted are these: Homo sapiens, U-251, TMZ alone, 72 hrs. How it is done: as §5, §6, §7
The conditions of data set [9]: patients; cited from earlier work.
Where [10] appears, read: T98 cells (TMZ-resistant), UT 1.00.
Where [11] appears, read: U251 cells (TMZ-sensitive), UT 1.00.

With `CC(C)(C)[N+]([O-])=Cc1ccccc1` [PBN, phenyl N-tert-butyl nitrone], in data set [1], the half-life entry is on record as “about 132 minutes”. Further, in data set [2], the “crossing of the blood brain barrier” value is “easily penetrate the BBB”. Besides, in the data set with C6 gliomas (post-treatment), the “tumors with reduced tumor growth” value was around 50%. Besides, the “tumors with reduced growth” value in the data set with C6 gliomas (pre-treatment) is reported as above 80%.

Take `O=NN(CCCl)C(=O)NC1CCCCC1` [Lomustine, 1-(2-chloroethyl)-3-cyclohexyl-1-nitrosourea]: in data set [2], the “crossing of the blood brain barrier” value is “crosses the blood brain barrier”.

Turning to `CC[C@]1(O)C[C@H]2CN(CCc3c([nH]c4ccccc34)[C@@](C(=O)OC)(c3cc4c(cc3OC)N(C=O)[C@H]3[C@@](O)(C(=O)OC)[C@H](OC(C)=O)[C@]5(CC)C=CCN6CC[C@]43[C@@H]65)C2)C1` [Vincristine, vincaleukoblastine, a 22-oxo-, sulfate (1:1) (salt)], the “crossing of the blood brain barrier” value in data set [2] is reported as “does not appear to cross the blood brain barrier”.

Consider `Cn1nnc2c(C(N)=O)ncn2c1=O` [TMZ, Temozolomide, reference compound], for which the “RT-PCR gene-fold change MGMT” value is on record as 0.77 fold in the data set with MGMT [3] (LN18 cells (TMZ-resistant), UT 1.06); 1.07 fold in the data set on MGMT [3] (setting [10]); 1.32 fold in the data set on MGMT [3] (setting [11]). Further, the “RT-PCR gene-fold change MPG” value worked out at 2.53 fold in the data set with MPG [4] (G55 cells (TMZ-resistant), UT 1.06); 2.95 fold in the data set with MPG [4] (LN18 cells (TMZ-resistant), UT 1.00); 1.22 fold in the data set with MPG [4] (LN229 cells (TMZ-sensitive), UT 1.10); 1.22 fold with MPG [4] (T98 cells (TMZ-resistant), UT 1.10); 7.14 fold in the data set on MPG [4] (U138 cells (TMZ-resistant), UT 1.13); 1.11 fold with MPG [4] (U251 cells (TMZ-sensitive), UT 1.10). For the same molecule, the IC50 was 108 µM in the data set on LN229 cells (Homo sapiens, LN-229, 72 h); around 100 µM with LN229 cells (72 hrs); 438 µM in the data set with T98 cells (Homo sapiens, T98, 72 h); 447 µM in the data set with T98 cells (72 hrs); 774 µM in the data set with LN18 cells; 448 µM in the data set on U138 cells. The IC50 is 94.3 µM in the data set on G55 cells (G55 (high) passage), 567 µM in the data set on G55 cells (G55 (low) passage) and 176 µM with U251 cells. Also, the “ELISA protein level MGMT” value in the data set with MGMT [5] (G55 cells, UT 0.37) was determined as 1.19 ng/mg cell lysate; with MGMT [5] (LN18 cells, UT 1.23), 1.28 ng/mg cell lysate; in the data set on MGMT [5] (LN229 cells, UT 0.67) it was 0.75 ng/mg cell lysate; with MGMT [5] (T98 cells, UT 0.62), 1.76 ng/mg cell lysate; in the data set with MGMT [5] (U138 cells, UT 0.77), 0.98 ng/mg cell lysate; in the data set on MGMT [5] (U251 cells, UT 0.92), 1.48 ng/mg cell lysate. For the same molecule, the “ELISA protein level MPG” value in the data set with MPG [6] (G55 cells, UT 1.15) worked out at 1.50 ng/mg cell lysate; with MPG [6] (LN18 cells, UT 2.18) it was 2.27 ng/mg cell lysate; in the data set with MPG [6] (LN229 cells, UT 2.34), 1.93 ng/mg cell lysate; with MPG [6] (T98 cells, UT 3.04), 3.82 ng/mg cell lysate; with MPG [6] (U138 cells, UT 1.30), 1.50 ng/mg cell lysate; in the data set on MPG [6] (U251 cells, UT 2.70), 4.99 ng/mg cell lysate. Besides, the “ELISA protein level HIF-1α” value in the data set on HIF-1α [7] (G55 cells, UT 0.14) is 1.08 ng/mg cell lysate; in the data set on HIF-1α [7] (LN18 cells, UT 0 76), 0.83 ng/mg cell lysate; in the data set on HIF-1α [7] (LN229 cells, UT 0.68), 0.74 ng/mg cell lysate; in the data set with HIF-1α [7] (T98 cells, UT 0.42), 0.77 ng/mg cell lysate; in the data set with HIF-1α [7] (U138 cells, UT 0.40), 0.84 ng/mg cell lysate; in the data set on HIF-1α [7] (U251 cells, UT 0.30), 1.41 ng/mg cell lysate. For the same molecule, the “RT-PCR gene-fold change HIF-1α” value came to 1.85 fold with HIF-1α [8] (G55 cells (TMZ-resistant), UT 1.00); 2.11 fold in the data set with HIF-1α [8] (LN18 cells (TMZ-resistant), UT 1.03); 1.41 fold with HIF-1α [8] (LN229 cells (TMZ-sensitive), UT 1.00); 1.72 fold in the data set with HIF-1α [8] (setting [10]); 2.05 fold with HIF-1α [8] (U138 cells (TMZ-resistant), UT 1.00); 1.48 fold with HIF-1α [8] (setting [11]). Moreover, in data set [9], the “incidence of severe nausea and vomiting (each)” value was “around 4%”.

For orientation: IC50 means the concentration that inhibits the measured activity by half. The low end stands for inhibition by little substance, the high end for a need for much substance.
